For this series the following is noted: in vivo.

In the case of `CC12CC3CC(C)(C1)CC(N)(C3)C2` [Memantine 20mg, 3,5-dimethyladamantan-1-amine], the “AUC 0→72 Point Estimate [%]” value was 103.89% and the “Cmax Point Estimate [%]” value is reported as 101.40%.

Values taken from patent EP3843702B1, “IMMEDIATE RELEASE FIXED-DOSE COMBINATION OF MEMANTINE AND DONEPEZIL” (Tecnimede, Sociedade Técnico-Medicinal, SA, priority 2019, dated 2020).
